# Test results as given in PMC3899110 (Methods (San Diego, Calif.), 2013).
# Where two headings read alike, the source gives them in different places.
# Experiments:
# [1] = molecular target: T1, LYP (Homo sapiens, UniProt Q9Y2R2); conditions: Spectrum collection screen, cited from earlier work
# T1 sequence (Q9Y2R2 24-289 limits assumed): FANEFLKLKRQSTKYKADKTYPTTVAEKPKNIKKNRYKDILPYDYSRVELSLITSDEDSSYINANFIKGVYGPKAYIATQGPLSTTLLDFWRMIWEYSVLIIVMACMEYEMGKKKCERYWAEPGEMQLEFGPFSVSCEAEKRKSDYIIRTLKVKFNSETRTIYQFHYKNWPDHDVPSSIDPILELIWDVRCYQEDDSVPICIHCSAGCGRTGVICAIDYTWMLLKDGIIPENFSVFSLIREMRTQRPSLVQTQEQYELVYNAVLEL
# [2] = molecular target: T1, LYP; experiment: LYP inhibition, follow-up of the 1536-well HTS, pCAP or OMFP substrate; assay type: biochemical
# [3] = molecular target: T1, LYP; assay type: biochemical; conditions: for kcat: pH 6.5
"IC50 ([2]; read-out: IC50, OMFP substrate, assayed using the OMFP substrate) [µM]","IC50 ([2]; read-out: IC50, pCAP substrate, assayed using the pCAP substrate) [µM]",Compound,"inhibition of LYP activity, DiFMUP-based screen ([1]; DiFMUP as substrate) [%]","inhibition of LYP activity, peptide-based screen ([1]; peptide 2 as substrate)",Km [3] [µM],kcat/Km [3],kcat [3] [s⁻¹]
,,Cc1ccc(C(=O)Nc2ccc(S(=O)(=O)O)c3cc(S(=O)(=O)O)cc(S(=O)(=O)O)c23)cc1NC(=O)c1cccc(NC(=O)Nc2cccc(C(=O)Nc3cc(C(=O)Nc4ccc(S(=O)(=O)O)c5cc(S(=O)(=O)O)cc(S(=O)(=O)O)c45)ccc3C)c2)c1 [suramin],~40,nearly all,,,
1.5,0.53,O=C(O)COc1ccc(/C=N/NC(=O)c2ccc(-c3csc(Nc4ccc(Cl)cc4)n3)cc2)cc1 [CID9595032],,,,,
,,Ac-ARLIEDNE-pCAP-TAREG-NH2 [Peptide 2],,,200 ± 60,"27,000,000 M^−1s^−1",5400 ± 1000
,,Ac-ARLIEDNE-pY-TAREG-NH2 [Peptide 2a],,,130 ± 20,"52,000,000 M^−1s^−1",6700 ± 400
